Experimental data as given in patent US20210170033A1, “NOVEL CONJUGATES OF A PHARMACEUTICAL AGENT AND A MOIETY CAPABLE OF BINDING TO A GLUCOSE SENSING PROTEIN” (SANOFI, priority 2017, published 2021).
Like-named read-outs stand apart in the source and are kept apart here.

Columns and labels:
A2780 cells = test: Deoxy-glucose uptake assay in A2780 cells (14C 2-deoxy-D-glucose transport); format: cell-based; settings: Homo sapiens, 20 min; inhibition of 14C 2-deoxy-D-glucose transport into A2780 cells; 20 min compound incubation; read-out: IC50
Procedure, shortened: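 Radiolabelled 2-deoxy-D-glucose transport over 20 min was scintillation-counted in A2780 cells, grown 48 h, after 20 min compound exposure in KRB. Untreated cells gave the 100% reference, with Cytochalasin B defining background. IC50 values were regressed from triplicate means across 7 or 14 concentrations.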

[1] = test system: A2780 Human Carcinoma Cells; test: Glucose displacement assay (ATP measurement, CellTiter-Glo); format: cell-based; settings: ATP measurement in A2780 cells, 0.5 μM rotenone
Experimental: 2. Glucose Displacement Assay (ATP Measurement)
30,000 A2780 Human Carcinoma Cells are seeded per well in a Greiner 96-well plate. Cells are expanded and cultured in RPMI 1640 medium+GlutaMAX® with 10% FCS and 11 mM glucose, at 37° C. with 5% CO2. After 44 h, culture media is changed and washed once with PBS to starvation media consisting of RPMI 1640 medium with 1% FCS without glucose for 2 hours. Cells are then washed with KRB buffer, followed by incubation for 20 min at 37° C. of the treatment mix consisting of 60 μL KRB buffer/well and 10 μL of compound or DMSO 10×. 10 μl of rotenone is added to the mix to a final concentration of 0.5 μM. Cell plates are left for 2 min at room temperature. 20 μL of different glucose concentrations are added to the mix—typically 0.1 to 10 mM range—.
Cells are incubated for another 15 min at 37° C., before measuring ATP with the CellTiter-Glo® Assay, under manufacturer's guidance, but without the equilibration step at room temperature for 30 min. In brief, 100 μl of Cell-Titer-Glo® Reagent is added to the wells containing already 100 μl of the previous reaction mix. Plates are mixed for 2 min at 800 rpm, followed by incubation at room temperature for 10 min to stabilize the luminescent signal. Luminescence is then recorded with the Tekan Ultra Evolution reader.

[2] = 1 mM glucose, read-out: IC50 [μM] at 1 mM glucose
[3] = 10 mM glucose, read-out: IC50 [μM] at 10 mM glucose

SMILES	IC50 (A2780 cells)	IC50 [1, 2]	IC50 [1, 3]
C#CCCCn1c(COc2c(Cl)cc(C(=O)O[C@H]3[C@@H](OC)O[C@H](CO)[C@@H](O)[C@@H]3O)c(C)c2Cl)nc2cc(OC)ccc21 [Example 292]	0.1 µM	0.13 µM	1.12 µM
C#CCCCn1cnc(COc2c(Cl)cc(C(=O)O[C@H]3[C@@H](OC)O[C@H](CO)[C@@H](O)[C@@H]3O)cc2OC)c1 [Example 208]	12.7 µM	21.4 µM	> 100 µM
COc1cc(OCc2cccc(NC(=O)CCCC(=O)OC(C)(C)C)c2)c(Cl)cc1C(=O)O[C@H]1[C@@H](OC)O[C@H](CO)[C@@H](O)[C@@H]1O [Example 376]	0.8 µM	1.02 µM	3.73 µM
COc1cc(OCc2cccc(CNC(=O)CCCCCCC(=O)OC(C)(C)C)c2)c(Cl)cc1C(=O)N[C@H]1[C@@H](OC)O[C@H](CO)[C@@H](O)[C@@H]1O [Example 426]	2.8 µM	5.56 µM	19.5 µM
COc1cc(OCc2cccc(CNC(=O)CCCC(=O)OC(C)(C)C)c2)c(Cl)cc1C(=O)N[C@H]1[C@@H](OC)O[C@H](CO)[C@@H](O)[C@@H]1O [Example 425]	2.5 µM	7.97 µM	14.5 µM
COc1cc(OCc2cccc(CNC(=O)CCCC(=O)OC(C)(C)C)c2)c(Cl)cc1C(=O)O[C@H]1[C@@H](OC)O[C@H](CO)[C@@H](O)[C@@H]1O [Example 373]	4.1 µM	6.44 µM	26.7 µM
COC(=O)[C@H](CCCCNC(=O)CCCC(=O)Nc1cccc(COc2cc(OC)c(C(=O)O[C@H]3[C@@H](OC)O[C@H](CO)[C@@H](O)[C@@H]3O)cc2Cl)c1)NC(=O)OC(C)(C)C [Example 412]	2.3 µM	6.02 µM	13.9 µM
COC(=O)[C@H](CCCCNC(=O)CCCCCCCCC(=O)Nc1cccc(COc2cc(OC)c(C(=O)N[C@H]3[C@@H](OC)O[C@H](CO)[C@@H](O)[C@@H]3O)cc2Cl)c1)NC(=O)OC(C)(C)C [Example 442]	1 µM	1.6 µM	5.2 µM
C#CCCCn1c(COc2cc(OC)c(C(=O)O[C@H]3[C@@H](OC)O[C@H](CO)[C@@H](O)[C@@H]3O)cc2Cl)nc2ccccc21 [Example 294]	0.1 µM	0.16 µM	1.28 µM
COc1cc(OCc2cccc(CNC(=O)CCC(=O)OC(C)(C)C)c2)c(Cl)cc1C(=O)N[C@H]1[C@@H](OC)O[C@H](CO)[C@@H](O)[C@@H]1O [Example 424]	3.3 µM	9.79 µM	25.4 µM
COc1cc(OCc2cccc(NC(=O)CCCCCCC(=O)O)c2)c(Cl)cc1C(=O)O[C@H]1[C@@H](OC)O[C@H](CO)[C@@H](O)[C@@H]1O [Example 409]	4.1 µM	7.63 µM	14.5 µM
COc1cc(OCc2cccc(OCCCCCC(=O)O)c2)c(Cl)cc1C(=O)O[C@H]1[C@@H](OC)O[C@H](CO)[C@@H](O)[C@@H]1O [Example 379]	8.3 µM	5.39 µM	24.1 µM
C#CCCCn1c(COc2cc(Cl)cc(C(=O)O[C@H]3[C@@H](OC)O[C@H](CO)[C@@H](O)[C@@H]3O)c2)nc2ccccc21 [Example 314]	9.7 µM	2.81 µM	28.5 µM
COc1cc(OCc2cccc(NC(=O)CCCC(=O)O)c2)c(Cl)cc1C(=O)O[C@H]1[C@@H](OC)O[C@H](CO)[C@@H](O)[C@@H]1O [Example 407]	8.6 µM	16.3 µM	> 33 µM
COC(=O)[C@H](CCC(=O)Nc1cccc(COc2cc(OC)c(C(=O)O[C@H]3[C@@H](OC)O[C@H](CO)[C@@H](O)[C@@H]3O)cc2Cl)c1)NC(=O)OC(C)(C)C [Example 377]	2.4 µM	1.34 µM	7.83 µM
C#CCCCn1c(COc2cc(C(=O)O[C@H]3[C@@H](OC)O[C@H](CO)[C@@H](O)[C@@H]3O)cc3c2cnn3C)nc2ccccc21 [Example 327]	9.4 µM	4.99 µM	> 33 µM
C#CCCC(=O)Nc1cc(COc2c(Cl)cc(C(=O)O[C@H]3[C@@H](OC)O[C@H](CO)[C@@H](O)[C@@H]3O)c(C)c2Cl)ccc1OC [Example 331]	1.1 µM	0.36 µM	1.79 µM
COc1cc(OCc2cccc(CNC(=O)CCC(=O)OC(C)(C)C)c2)c(Cl)cc1C(=O)O[C@H]1[C@@H](OC)O[C@H](CO)[C@@H](O)[C@@H]1O [Example 372]	2.4 µM	2.89 µM	15 µM
C#CCCCn1c(COc2c(Cl)cc(C(=O)O[C@H]3[C@@H](OC)O[C@H](CO)[C@@H](O)[C@@H]3O)c(C)c2Cl)nc2ccc(C)cc21 [Example 329]	0.01 µM	0.2 µM	0.94 µM
COC(=O)/C=C/c1ccc(COc2c(Cl)cc(C(=O)N[C@H]3[C@@H](OC)O[C@H](CO)[C@@H](O)[C@@H]3O)c(C)c2Cl)cc1 [Example 315]	12.9 µM	2.3 µM	> 33 µM
COC(=O)[C@H](CCCCNC(=O)CCCCCCC(=O)NCc1cccc(COc2cc(OC)c(C(=O)N[C@H]3[C@@H](OC)O[C@H](CO)[C@@H](O)[C@@H]3O)cc2Cl)c1)NC(=O)OC(C)(C)C [Example 437]	17.6 µM	19.5 µM	> 33 µM
COc1cc(OCc2cccc(NC(=O)CCCCCCC(=O)OC(C)(C)C)c2)c(Cl)cc1C(=O)N[C@H]1[C@@H](OC)O[C@H](CO)[C@@H](O)[C@@H]1O [Example 430]	1.7 µM	3.9 µM	7.8 µM
